From patent US11638716B2, “Compounds, compositions, and methods for the treatment of disease” (F-star Therapeutics, Inc., priority 2017, dated 2023)

Legend:
[1] = biological target: T1, R71H-G230A-R293Q (HAQ) variant of hSTING (Homo sapiens, UniProt Q86WV6, G230A/H232R/R293Q/R71H); assay: IRF/NF-kB reporter cells, STING HAQ variant; format: cell-based; details: 20 hours
T1 construct: THP1-Dual-WT cells express STING-HAQ variant; endogenous in cells; host or cells: THP1-Dual-WT cells
Experimental: (§1) FIG. 22 depicts cells stably expressing both or either one of the reporters to measure IRF and NF-kB activity were treated with a range of concentrations of compound 2 or DMSO control for 20 hours. IRF activity was assessed using QUANTI-luc to measure levels of Lucia and NF-kB activity was determined by measure SEAP levels at 620-655 nm. % induction was calculated from fold change in luminescence/absorbance compared to DMSO treated sample. EC50 values are generated by curve fit in Xlfit.
as §1, with “FIG. 24” for “FIG. 22”, “compound 3” for “compound 2”
as §1, with “FIG. 27” for “FIG. 22”, “compound 4” for “compound 2”
(§2) Cells grown in complete media were treated with various concentrations of a compound of the disclosure or DMSO control. […] After 20 h incubation, IRF activity was assessed using QUANTI-luc to measure levels of Lucia and NF-kB activity was determined by measure SEAP levels at 620-655 nm. % induction was calculated from fold change in luminescence/absorbance compared to DMSO treated sample. […]

wild type STING = biological target: T2, wild type STING (Homo sapiens, UniProt Q86WV6, H232R); assay: IRF/NF-kB reporter cells, wild type STING; format: cell-based; details: 20 hours
T2 construct: expressed in transfected cells; host or cells: THP1-Dual-KI-STING-R232 (made from THP-Dual-STING KO cells)
T2 sequence (Q86WV6 whole entry H232R): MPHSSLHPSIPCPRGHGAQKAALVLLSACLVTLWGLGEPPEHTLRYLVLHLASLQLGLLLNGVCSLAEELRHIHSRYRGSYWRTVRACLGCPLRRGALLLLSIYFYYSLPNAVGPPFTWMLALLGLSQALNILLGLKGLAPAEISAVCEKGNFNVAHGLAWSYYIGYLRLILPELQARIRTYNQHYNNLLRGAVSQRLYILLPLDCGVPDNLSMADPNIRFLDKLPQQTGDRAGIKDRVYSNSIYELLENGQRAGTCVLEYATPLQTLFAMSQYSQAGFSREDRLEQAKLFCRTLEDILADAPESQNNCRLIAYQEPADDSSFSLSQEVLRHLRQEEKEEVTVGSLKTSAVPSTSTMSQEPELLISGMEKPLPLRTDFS
Experimental: as §1
as §1, with “FIG. 24” for “FIG. 22”, “compound 3” for “compound 2”
as §1, with “FIG. 27” for “FIG. 22”, “compound 4” for “compound 2”
as §2

[2] = system: CT26 murine colon carcinoma; assay: CT26 murine colon carcinoma model in female BALB/c mice; format: in vivo, mouse
Experimental: Example 4: Study to Determine the Efficacy of Compound 4 in a CT26 Murine Colon Carcinoma Model Using Female BALB/c Mice
The animals were fed ad libitum water (reverse osmosis, 1 ppm Cl) and a NIH 31 Modified and Irradiated Lab Diet consisting of 18.0% crude protein, 5.0% crude fat, and 5.0% crude fiber.
CT26 murine colon carcinoma cells were grown in RPMI-1640 medium containing 10% fetal bovine serum, 2 mM glutamine, 100 units/mL penicillin G sodium, 100 μg/mL streptomycin sulfate, and 25 μg/mL gentamicin. The cells were cultured in tissue culture flasks in a humidified incubator at 37° C., in an atmosphere of 5% CO2 and 95% air.
On the day of implantation, cultured CT26 cells were harvested during log phase growth and resuspended in phosphate buffered saline, pH 7.4 (PBS) at a concentration of 3×10^6 cells/mL. Each mouse was injected subcutaneously in the right flank with 3×10^5 tumor cells (0.1 mL cell suspension) and tumors were monitored as their volumes approached the target range of 80 to 120 mm^3. Eleven days after tumor cell implantation, on Day 1 of the study, animals were sorted into three groups (n=8/group) with individual tumor volumes of 63 to 126 mm^3, and a group mean tumor volume of 105 mm^3. Tumors were measured with a caliper twice weekly for the duration of the study. Tumor size was calculated using the formula:
[formula] wherein w is width and 1 is length, in mm, of a tumor. Tumor weight may be estimated with the assumption that 1 mg is equivalent to 1 mm^3 of tumor volume. Test Articles
Compound 4 was dissolved by adding the appropriate volume of sterile saline (vehicle) into each tube, vortexing, incubating at 37° C. for 2-5 minutes, followed by sonication, if needed. […] A fresh vial was prepared on each day of dosing.
On Day 1 of the study, three groups of BALB/c mice (n=8) began dosing according to the protocol in FIG. 20. Compound 4 and vehicle were administered intravenously (i.v.). Group 1 received vehicle on Days 1, 5, 9, and 14. Groups 2 and 3 received CMD 4 at 1 and 3 mg/kg, respectively, on Days 1, 5, 9, and 14.
The study endpoint was a tumor volume of 2000 mm^3 or Day 30, whichever came first. The study ended on Day 29. The study protocol specified a tumor growth delay assay based on the median time-to-endpoint (TTE) in a treated group versus the control group. Tumors were measured using calipers twice per week, and each animal was euthanized for tumor progression (TP) when its tumor reached the 2000 mm^3 volume endpoint. The TTE for each mouse was calculated with the following equation:
[formula] where b is the intercept and m is the slope of the line obtained by linear regression of a log-transformed tumor growth data set. The data set is comprised of the first observation that exceeded the study endpoint volume and the three consecutive observations that immediately preceded the attainment of the endpoint volume. […] In instances in which the log-transformed calculated TTE preceded the day prior to reaching endpoint or exceeded the day of reaching tumor volume endpoint, a linear interpolation was performed to approximate TTE.
On Day 29, MTV (n) was defined as the median tumor volume of the number of animals, n, that survived to the last day and whose tumors had not reached the volume endpoint. Any animal determined to have died from treatment-related (TR) causes was to be assigned a TTE value equal to the day of death. Any animal that died from non-treatment-related (NTR) causes was to be excluded from the analysis. Treatment outcome was evaluated from tumor growth delay (TGD), which was defined as the increase in the median TTE for a treatment group compared to the control group: TGD=T−C expressed in days, or as a percentage of the median TTE of the control group:
[formula] wherein T is the median TTE for a treatment group and C is the median TTE for the control group. Tumor Growth Inhibition (TGI) Analysis […]

T1 sequence (Q86WV6 whole entry R71H/G230A/H232R/R293Q): as the sequence (Q86WV6 whole entry H232R) above, with R71H, G230A, R293Q counted along it

SMILES | activity against R71H-G230A-R293Q (HAQ) variant of hSTING [1] | activity against wild type STING (wild type STING) | tumor growth compared to the vehicle ([2]; intravenously at 3 mg/kg) | tumor growth compared to the vehicle ([2]; intravenously at 1 mg/kg and 3 mg/kg) | individual times to endpoint vs vehicle group ([2]; treatment groups 1 and 3 mg/kg i.v.) | tumor growth inhibition compared to the vehicle group ([2]; treatment groups 1 and 3 mg/kg i.v., Days 1, 5, 9, 14, TGI on Day 18) | time to reach the endpoint, longer than vehicle group ([2]; treatment groups 1 and 3 mg/kg i.v., Days 1, 5, 9, 14, endpoint tumor volume 2000 mm^3) | tumor volume distribution on day 18 vs vehicle group ([2]; treatment groups 1 and 3 mg/kg i.v., day 18) | percent of mice remaining (Kaplan-Meier) vs vehicle group ([2]; treatment groups 1 and 3 mg/kg i.v., day 21)
N.N.Nc1ncnc2c1ncn2[C@@H]1O[C@@H]2COP(=O)(S)O[C@@H]3[C@H](F)[C@@H](COP(=O)(O)O[C@H]2[C@H]1F)O[C@H]3n1ccc(=O)[nH]c1=O (some centres unmarked) [Compound 3] | possess activity | possess activity | Tumor growth was slowed | – | – | – | – | – | –
CCCCCCCCCCOc1ccc(C(=O)Oc2ccc(CSP3(=O)OC[C@H]4O[C@@H](n5cnc6c(N)ncnc65)[C@H](F)[C@@H]4OP(=O)(O)OC[C@H]4O[C@@H](n5ccc(=O)[nH]c5=O)[C@H](O3)[C@@H]4F)cc2)cc1 (some centres unmarked) [Compound 4] | possess activity | possess activity | – | Tumor growth was slowed | took longer to reach the endpoint | at least 89% | at least 10 days | significantly smaller tumor volumes | greater percent of mice remaining
